Measured values published in patent publication US9376396B2, “Acylaminocycloalkyl compounds suitable for treating disorders that respond to modulation of dopamine D3 receptor” (AbbVie Deutschland GmbH & Co. KG, priority 2012, dated 2016).

Tests used:
[1] = target: T1, human dopamine D3 receptors (Homo sapiens, UniProt P35462); test: Receptor binding study, dopamine D3 receptor ([125I]-iodosulpride displacement); conditions: membranes of HEK-293 cells, 0.1 nM [125I]-iodosulpride, 25° C., 60 minutes
T1 construct: expressed in transfected cells; host or cells: HEK-293
T1 sequence (P35462 whole entry): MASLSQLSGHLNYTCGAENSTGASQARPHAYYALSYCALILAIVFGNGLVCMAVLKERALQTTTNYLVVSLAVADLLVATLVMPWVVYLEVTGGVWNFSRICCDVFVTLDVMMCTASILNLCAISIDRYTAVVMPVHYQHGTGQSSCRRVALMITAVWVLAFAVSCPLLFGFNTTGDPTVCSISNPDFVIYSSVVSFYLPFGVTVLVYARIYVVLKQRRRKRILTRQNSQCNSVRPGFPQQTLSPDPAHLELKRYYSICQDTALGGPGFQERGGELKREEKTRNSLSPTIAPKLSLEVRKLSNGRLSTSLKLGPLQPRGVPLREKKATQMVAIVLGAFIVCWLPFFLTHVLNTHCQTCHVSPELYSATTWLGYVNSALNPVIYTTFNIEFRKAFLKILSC
Method: (§1) The substance to be tested was either dissolved in methanol/Chremophor® (BASF SE) or in dimethyl sulfoxide and then diluted with water to the desired concentration.
(§2) Each assay mixture was run in triplicate. • The incubation buffer contained 50 mM tris, 120 mM NaCl, 5 mM KCl, 2 mM CaCl2, 2 mM MgCl2 and 0.1% bovine serum albumin, 10 μM quinolone and 0.1% ascorbic acid (prepared fresh daily). […] Each assay mixture was run in triplicate. • The incubation buffer contained 50 mM tris, 120 mM NaCl, 5 mM KCl, 2 mM CaCl2, 2 mM MgCl2 and 0.1% bovine serum albumin. The buffer was adjusted to pH 7.4 with HCl. c) Measurement and Analysis: • After having been incubated at 25° C. for 60 minutes, the assay mixtures were filtered through a Whatman GF/B glass fiber filter under vacuum using a cell collecting device. The filters were transferred to scintillation viols using a filter transfer system. After 4 ml of Ultima Gold® (Packard) have been added, the samples were shaken for one hour and the radioactivity was then counted in a Beta-Counter (Packard, Tricarb 2000 or 2200CA).

[2] = target: T2, human dopamine D2L receptors (long isoform) (Homo sapiens, UniProt P14416); test: Receptor binding study, dopamine D2L receptor ([125I]iodospiperone displacement), selectivity vs D3; conditions: selectivity ratio, HEK-293 membranes
T2 construct: expressed in transfected cells; host or cells: HEK-293
T2 sequence (P14416 whole entry, canonical isoform): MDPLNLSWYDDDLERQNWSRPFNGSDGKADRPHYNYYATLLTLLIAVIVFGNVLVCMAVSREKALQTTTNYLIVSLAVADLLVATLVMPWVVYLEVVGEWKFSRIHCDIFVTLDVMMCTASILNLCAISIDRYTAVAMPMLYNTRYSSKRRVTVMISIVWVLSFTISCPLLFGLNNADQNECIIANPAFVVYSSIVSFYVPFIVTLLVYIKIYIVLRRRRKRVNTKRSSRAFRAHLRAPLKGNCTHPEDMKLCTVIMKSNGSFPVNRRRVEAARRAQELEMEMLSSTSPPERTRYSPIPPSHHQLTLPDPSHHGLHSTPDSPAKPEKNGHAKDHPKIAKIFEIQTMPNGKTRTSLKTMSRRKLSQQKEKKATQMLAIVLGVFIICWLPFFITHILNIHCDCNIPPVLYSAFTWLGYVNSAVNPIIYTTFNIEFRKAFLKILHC
Method: as §1, §2

[3] = Determination of the microsomal half-life / microsomal clearance, rat; assay type: in vitro ADME; conditions: rat liver microsomes, 0.5 μM test substance, 0.25 mg microsomal protein/ml, NADPH, 37° C.
Method: (§3) The metabolic stability of the compounds of the invention was determined in the following assay.
(§4) The test substances were incubated in a concentration of 0.5 μM as follows:
(§5) 0.5 μM test substance are preincubated together with liver microsomes from different species (from rat, human or other species) (0.25 mg of microsomal protein/ml) in 0.05 M potassium phosphate buffer of pH 7.4 in microtiter plates at 37° C. for 5 min. The reaction is started by adding NADPH (1 mg/mL). After 0, 5, 10, 15, 20 and 30 min, 50 μl aliquots are removed, and the reaction is immediately stopped and cooled with the same volume of acetonitrile. The samples are frozen until analyzed. The remaining concentration of undegraded test substance is determined by MSMS. The half-life (T½) is determined from the gradient of the signal of test substance/unit time plot, it being possible to calculate the half-life of the test substance, assuming first order kinetics, from the decrease in the concentration of the compound with time. The microsomal clearance (mCl) is calculated from mCl=ln 2/T½/(content of microsomal protein in mg/ml)×1000 [ml/min/mg] (modified from references: Di, The Society for Biomoleculur Screening, 2003, 453-462; Obach, DMD, 1999 vol 27. N 11, 1350-1359).

[4] = Determination of the microsomal half-life / microsomal clearance, human; assay type: in vitro ADME; conditions: human liver microsomes, 0.5 μM test substance, 0.25 mg microsomal protein/ml, NADPH, 37° C.
Method: as §3, §4, §5

Row | Structure (SMILES) | Ki [1] [nM] | D2/D3 (Ki (D2L)/Ki (D3)) [2] | Rat mCl [3] | Human mCl [4]
1 | COCCc1cc(N2CCN(CC[C@H]3C[C@@H](NC(C)=O)C3)C[C@@H]2C)nc(C(C)(C)C)n1 [Compound 31, cis-N-[3-[2-[(3S)-4-[2-tert-butyl-6-(2-methoxyethyl)pyrimidin-4-yl]-3-methyl-piperazin-1-yl]ethyl]cyclobutyl]acetamide] | < 10 | + (+>10) | + (+: 20-120 μl min^−1 mg^−1) | + (+: 20-120 μl min^−1 mg^−1)
2 | COCCc1cc(N2CCN(CC[C@H]3CC[C@H](NC=O)CC3)C[C@@H]2C)nc(C(C)(C)C)n1 [Compound 20, trans-N-[4-[2-[(3S)-4-[2-tert-butyl-6-(2-methoxyethyl)pyrimidin-4-yl]-3-methyl-piperazin-1-yl]ethyl]cyclohexyl]formamide] | < 10 | +++ (+++>50) | + (+: 20-120 μl min^−1 mg^−1) | + (+: 20-120 μl min^−1 mg^−1)
3 | CC(C)(C)c1nc(CCO)cc(N2CCN(CC[C@H]3CC[C@H](NC=O)CC3)CC2)n1 [Compound 23, trans-N-[4-[2-[4-[2-tert-butyl-6-(2-hydroxyethyl)pyrimidin-4-yl]piperazin-1-yl]ethyl]cyclohexyl]formamide] | < 50 | +++ (+++>50) | + (+: 20-120 μl min^−1 mg^−1) | + (+: 20-120 μl min^−1 mg^−1)
4 | COCCc1cc(N2CCN(CC[C@H]3CC[C@H](NC=O)CC3)C[C@H]2C)nc(C(C)(C)C)n1 [Compound 19, trans-N-[4-[2-[(3R)-4-[2-tert-butyl-6-(2-methoxyethyl)pyrimidin-4-yl]-3-methyl-piperazin-1-yl]ethyl]cyclohexyl]formamide] | < 50 | +++ (+++>50) |  | + (+: 20-120 μl min^−1 mg^−1)
5 | COCCc1cc(N2CCN(CC[C@H]3C[C@@H](NC(C)=O)C3)CC2)nc(C(C)(C)C)n1.O=C(O)C(F)(F)F [Compound 4a, cis-N-[3-(2-{4-[2-tert-Butyl-6-(2-methoxy-ethyl)-pyrimidin-4-yl]-piperazin-1-yl}-ethyl)-cyclobutyl]-acetamide trifluoroacetate] |  |  | + (+: 20-120 μl min^−1 mg^−1) | + (+: 20-120 μl min^−1 mg^−1)
6 | COCCc1cc(N2CCN(CC[C@H]3CC[C@@H](NC(C)=O)CC3)CC2)nc(C(C)(C)C)n1 [Compound 3, cis-N-[4-(2-{4-[2-tert-Butyl-6-(2-methoxy-ethyl)-pyrimidin-4-yl]-piperazin-1-yl}-ethyl)-cyclohexyl]-acetamide] |  |  | + (+: 20-120 μl min^−1 mg^−1) | + (+: 20-120 μl min^−1 mg^−1)
7 | CC(=O)N[C@H]1CC[C@@H](CCN2CCN(c3cc(CCOC(F)(F)F)nc(C(C)(C)C)n3)CC2)CC1 [Compound 10a, cis N-[4-(2-{4-[2-tert-Butyl-6-(2-trifluoromethoxy-ethyl)-pyrimidin-4-yl]-piperazin-1-yl}-ethyl)-cyclohexyl]-acetamide] | < 10 | ++ (++>20) |  | 
8 | CC(=O)N[C@H]1CC[C@H](CCN2CCN(c3cc(CCO)nc(C(C)(C)C)n3)C[C@H]2C)CC1 [Compound 26, trans-N-[4-[2-[(2R)-4-[2-tert-butyl-6-(2-hydroxyethyl)pyrimidin-4-yl]-2-methyl-piperazin-1-yl]ethyl]cyclohexyl]acetamide] |  |  | + (+: 20-120 μl min^−1 mg^−1) | + (+: 20-120 μl min^−1 mg^−1)
9 | COCc1cc(N2CCN(CC[C@H]3CC[C@H](NC=O)CC3)CC2)nc(C(C)(C)C)n1 [Compound 21, trans-N-[4-[2-[4-[2-tert-butyl-6-(methoxymethyl)pyrimidin-4-yl]piperazin-1-yl]ethyl]cyclohexyl]formamide] |  |  |  | + (+: 20-120 μl min^−1 mg^−1)
